Measured values reported in patent US20130065866A1, “DENTINAL DRUG DELIVERY COMPOSITION AND SCREENING METHOD” (UNIVERSITY OF MEDICINE AND DENTISTRY OF NEW JERSEY, priority 2009, published 2013).

Key:
Format in all cases: cell-based, murine
[1] = test system: PGE2 production in LPS-stimulated RAW cells; assay: Transdentinal diffusion; diffusate applied to LPS-stimulated RAW cells, PGE2; conditions: 24 hours of diffusion through dentin; diffusate on RAW cells stimulated with LPS
Protocol: (§1) This screening method of the invention includes the steps of contacting a coronal surface of an isolated dentin sample with a test agent, incubating the test agent and dentin sample so that diffusate is formed on the pulpal side of the dentin sample, contacting an isolated dental pulp cell with the diffusate, and determining whether the diffusate contains a sufficient amount of test agent to act on a cell of the dental pulp. In one embodiment, it is determined whether the diffusate contains a sufficient amount of test agent to inhibit or decrease the expression or activity of at least one inflammatory mediator of the dental pulp cell (e.g., nociceptive nerve endings, blood vesicle cells or inflammatory cells).
(§2) The dentins sample can be isolated by conventional methods and used in combination with a commercially available two-chamber diffusion cell, wherein the partition separating the two chambers holds the dentin sample (e.g., a dentin disk) in an orientation so that the dentin tubules provide the only connection between the two chambers. See, e.g., Hanks, et al. (1993) J. Dent. Res. 72:931-938; and Puapichartdumrong, et al. (2003) Internatl. Endodont. J. 36:674-81. […]

[2] = test system: LPS-evoked NO production in RAW cells; assay: Direct effect on NO production in RAW cells; conditions: for reduction of spontaneous NO production: absence of LPS stimulation; for inhibition of LPS-evoked NO production: direct treatment
Description: (§3) After the one or more time intervals (e.g., one or more minutes, hours, or days), the diffusate is collected and tested for activity against an isolated dental pulp cell or isolated population of dental pulp cells. An isolated pulpal cell or population of dental pulp cells refers to cells that are removed from their native environment (i.e., the dental pulp). The isolated cells can be cultured primary cells or cultured cell line and include, but are not limited to fibroblasts, odontoblasts, histiocytes, macrophage, granulocytes, mast cells or plasma cells. Exemplary cell lines include, but are not limited to the murine macrophage cell line, RAW 264.7; immortalized mouse odontoblast cell line, MDPC-23; and the murine fibroblast cell line, 3T3.
(§4) As indicated, in some embodiments it is determined whether the diffusate contains a sufficient amount of test agent to inhibit or decrease the expression or activity of at least one inflammatory mediator of the dental pulp cell. In accordance with this embodiment, the isolated pulpal cell or population of dental pulp cells can be challenged with an inflammation-provoking stimulus (e.g., Lipopolysaccharide (LPS), N-formyl-methionyl-leucyl-phenylalanine, or phorbol myristate acetate) either before or after being contacted with the diffusate, so that the effect of the drug diffusing through the dentin barrier on inflammatory mediator production is assessed.
(§5) Prostaglandins such as PGE2 and nitric oxide (NO) are inflammatory mediators that are generated in injured tissue and influence vascular tissues, nociceptive nerve endings and immune cells. For example, exposure of immune and other cells to bacterial toxins such as LPS evokes production of PGE2 and NO. Other known mediators of inflammation include, but are not limited to, bradykinin, histamine, leukotrienes (Bd, Cd, Dd, Ed) IL-8, and neutrophil and macrophage lysosomal enzymes. The effect of test agents on the expression or activity of one or more of the above-referenced inflammatory mediators can be determined by conventional methods. For example, mRNA expression can be determined by dot blot, northern blot, or reverse transcriptase (RT)-PCR; protein expression can be determined by western blot or ELISA analysis; and NO production can be determined using a Griess reaction assay (e.g., EMSNOTOT kit) or ozone-based chemiluminescence assay.
The direct effect of drugs and lipids on inflammatory mediator production in RAW cells was determined. […] Measurable amounts of NO were produced in the absence of LPS stimulation (˜15 μM).

[3] = test system: LPS-evoked NO production in RAW cells; assay: Transdentinal diffusion; diffusate applied to LPS-stimulated RAW cells, NO; conditions: 24 hours of diffusion through dentin; diffusate on RAW cells stimulated with LPS
Protocol: as §1, §2

[4] = test system: LPS-evoked PGE2 production in RAW cells; assay: Direct effect on LPS-evoked PGE2 production in RAW cells; conditions: direct treatment
Description: as §3, §4
as §5, with “For example, exposure of immune and other cells to bacterial toxins such as LPS evokes production of PGE2 and NO. Other known mediators of inflammation include, but are not limited to, bradykinin, histamine, leukotrienes (Bd, Cd, Dd, Ed) IL-8, and neutrophil and macrophage lysosomal enzymes.” left out, “assay. […]” for “assay.”

[5] = test system: RAW cells; assay: Toxicity to cells in the RAW cell study; conditions: levels used in this study
Protocol: The direct effect of drugs and lipids on inflammatory mediator production in RAW cells was determined.

Compound | PGE2 production after diffusate application [1] | reduction of LPS-evoked NO production ([2]; 0.5 mM and lower (0.05, 0.005, 0.0005 mM)) | reduction of LPS-evoked NO production ([2]; 5 mM) | reduction of spontaneous NO production [2] | inhibition of LPS-evoked NO production [2] | LPS-evoked NO production after diffusate application [3] | inhibition of LPS-evoked PGE2 production ([4]; compared to oleic acid) | toxicity to cells [5] | effect on LPS-evoked NO production ([2]; 50 μM) | inhibition of LPS-evoked PGE2 production ([4]; 50 μM)
CC(=O)Oc1ccccc1C(=O)O [aspirin, acetylsalicyclic acid] | significantly reduced | did not significantly reduce LPS-evoked NO production | significantly reduced NO production | small (not statistically significant) reduction | effectively inhibited LPS-evoked NO production | depressed | effective inhibitors of LPS-evoked PGE2 production | non-toxic to cells |  | 
CC(C)Cc1ccc(C(C)C(=O)O)cc1 (centres unmarked) [ibuprofen] | significantly reduced |  |  |  | did suppress NO production | did not attenuate LPS-stimulated NO production | effective inhibitors of LPS-evoked PGE2 production |  | no effect on LPS-evoked NO production | inhibited LPS-evoked PGE2 production
CC/C=C\C/C=C\C/C=C\C/C=C\C/C=C\C/C=C\CCC(=O)O [DHA, docosahexaenoic] |  |  |  | small (not statistically significant) reduction | inhibited NO production but to a lesser extent than aspirin |  |  |  |  | 
CCCCCCCC/C=C\CCCCCCCC(=O)O [oleic acid] |  |  |  |  | not shared |  |  |  |  | 
